Experimental data reported in US20130202698A1 (NANJING SANHOME PHARMACEUTICAL CO., LTD., priority 2005, published 2013).
Marks after values point to notes of the source that are not given here.

Tests used:
[1] = system: motor balance and coordination; assay: Motor balance and coordination, modified beam walking method; conditions: mice, n=10
Experimental: Motor balance and coordination were tested using a modified beam walking method. Mice were put on a smooth beam tilted at an angle of 70 degree. Mice passed the test by standing on the beam for 0.5 minute without falling off. All the mice were pre-screened before the studies, and a total of 110 mice were selected by passing the beam test in 3 consecutive tries. The selected mice were divided into 11 groups with 10 mice in each group (half male and half female). At certain time points after drug administration, mice were tested on the beam for 3 consecutive times. A mouse was counted as failing to the test if it fell off the beam for 2 or more times.
The dose volume was 0.2 mL/10 gram and infusion rate was 0.2 mL/10 seconds. Chlorpromazine was used as the positive control.

[2] = Phase I clinical trials, intravenous, adverse events; assay type: in vivo; conditions: human phase I, 1.0 g, I.V., qd × 1d
Experimental: The clinical trials were conducted to test if the toxicities observed in animal models would correlate with the adverse effects in humans. Double-blinded, randomized controlled human phase I and phase II clinical trials were carried out to compare L-ornidazole with racemate in both intravenous (I.V.) and oral formulations. L-ornidazole caused remarkably less adverse events (related to nervous system) than the racemate in both I.V. and oral routes. Such adverse drug events may cause non-compliance in patients being treated, which could be dangerous for life-threatening infections.

[3] = system: thiopental-induced hypnosis; assay: Effects on thiopental-induced hypnosis; conditions: mice, 30 min before sodium thiopental 40 mg/kg IP, Mean ± SD, n=10
Experimental: A total of 70 mice were divided into 7 groups with 10 mice in each group (half male and half female), and animals were fasted for 8 hours before study. Vehicle control and ornidazole enantiomers were injected intraperitoneal (IP), after 30 minutes, sodium thiopental was then given IP: at 40 mg/kg.
Levo-, dextro-ornidazole and racemate are studied and compared in 6 treatment groups at 2 different dose levels of 40 and 80 mg/kg. The dose volume is 0.2 mL/10 gram and infusion rate is 0.2 mL/10 seconds.

[4] = system: spontaneous activities of mice; assay: Effects on spontaneous activities of mice; conditions: Mean ± SD, n=10

Cc1ncc([N+](=O)[O-])n1CC(O)CCl (racemic) [Racemic ornidazole, 1-(3-Chloro-2-hydroxypropyl)-2-methyl-5-nitroimidazole]
Number of Animals Fall Off ([1]; 40 mg/kg, 0.5 hours post-dose): 1 | Number of Animals Fall Off ([1]; 40 mg/kg, 1 hours post-dose): 0 | Number of Animals Fall Off ([1]; 40 mg/kg, 2 hours post-dose): 0 | Number of Animals Fall Off ([1]; 40 mg/kg, 3 hours post-dose): 0 | Number of Animals Fall Off ([1]; 40 mg/kg, 4 hours post-dose): 0 | Number of Animals Fall Off ([1]; 80 mg/kg, 0.5 hours post-dose): 0 | Number of Animals Fall Off ([1]; 80 mg/kg, 1 hours post-dose): 0 | Number of Animals Fall Off ([1]; 80 mg/kg, 2 hours post-dose): 2 | Number of Animals Fall Off ([1]; 80 mg/kg, 3 hours post-dose): 0 | Number of Animals Fall Off ([1]; 80 mg/kg, 4 hours post-dose): 0 | Number of Animals Fall Off ([1]; 160 mg/kg, 0.5 hours post-dose): 10## | Number of Animals Fall Off ([1]; 160 mg/kg, 1 hours post-dose): 8## | Number of Animals Fall Off ([1]; 160 mg/kg, 2 hours post-dose): 6 | Number of Animals Fall Off ([1]; 160 mg/kg, 3 hours post-dose): 4 | Number of Animals Fall Off ([1]; 160 mg/kg, 4 hours post-dose): 3 | # of Patients Reporting Adverse Events/Total Patients [2]: 5/10 | Sleeping Time ([3]; 40 mg/kg IP): 74.0 ± 51.3 min | Time to Lose Righting Reflex ([3]; 40 mg/kg IP): 2.1 ± 0.3 min | Sleeping Time ([3]; 80 mg/kg IP): 106.6 ± 99.2 min | Time to Lose Righting Reflex ([3]; 80 mg/kg IP): 1.9 ± 0.4 min | Spontaneous Activities (per 5 min) ([4]; 40 mg/kg i.v., 0.5 h post-dose): 79 ± 26 per 5 min | Spontaneous Activities (per 5 min) ([4]; 40 mg/kg i.v., 1 h post-dose): 56 ± 37 per 5 min | Spontaneous Activities (per 5 min) ([4]; 40 mg/kg i.v., 2 h post-dose): 63 ± 23 per 5 min | Spontaneous Activities (per 5 min) ([4]; 40 mg/kg i.v., 3 h post-dose): 62 ± 24 per 5 min | Spontaneous Activities (per 5 min) ([4]; 40 mg/kg i.v., 4 h post-dose): 72 ± 35 per 5 min | Spontaneous Activities (per 5 min) ([4]; 80 mg/kg i.v., 0.5 h post-dose): 48 ± 35 per 5 min | Spontaneous Activities (per 5 min) ([4]; 80 mg/kg i.v., 1 h post-dose): 26 ± 19 per 5 min | Spontaneous Activities (per 5 min) ([4]; 80 mg/kg i.v., 2 h post-dose): 32 ± 21 per 5 min | Spontaneous Activities (per 5 min) ([4]; 80 mg/kg i.v., 3 h post-dose): 55 ± 27 per 5 min | Spontaneous Activities (per 5 min) ([4]; 80 mg/kg i.v., 4 h post-dose): 61 ± 20 per 5 min | Spontaneous Activities (per 5 min) ([4]; 160 mg/kg i.v., 0.5 h post-dose): 29 ± 17 per 5 min | Spontaneous Activities (per 5 min) ([4]; 160 mg/kg i.v., 1 h post-dose): 22 ± 14 per 5 min | Spontaneous Activities (per 5 min) ([4]; 160 mg/kg i.v., 2 h post-dose): 21 ± 12 per 5 min | Spontaneous Activities (per 5 min) ([4]; 160 mg/kg i.v., 3 h post-dose): 30 ± 13 per 5 min | Spontaneous Activities (per 5 min) ([4]; 160 mg/kg i.v., 4 h post-dose): 51 ± 23 per 5 min
